The values that follow come from PMC4579270, “Identification and Characterization of an Irreversible Inhibitor of CDK2” (Chemistry & Biology, 2015).

One assay concerns the target T1, Aurora A (Homo sapiens, UniProt O14965).
T1 sequence (O14965 1-403): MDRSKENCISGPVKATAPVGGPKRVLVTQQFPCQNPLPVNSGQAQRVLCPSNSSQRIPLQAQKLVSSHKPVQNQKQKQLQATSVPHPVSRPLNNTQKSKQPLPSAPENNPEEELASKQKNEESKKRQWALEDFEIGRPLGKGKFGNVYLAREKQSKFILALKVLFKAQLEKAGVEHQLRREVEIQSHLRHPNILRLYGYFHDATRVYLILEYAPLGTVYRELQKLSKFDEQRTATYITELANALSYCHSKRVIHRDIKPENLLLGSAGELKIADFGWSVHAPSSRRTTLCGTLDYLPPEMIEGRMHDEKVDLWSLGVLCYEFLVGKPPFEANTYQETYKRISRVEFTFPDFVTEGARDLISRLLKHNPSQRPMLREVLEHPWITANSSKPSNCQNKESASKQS
Put plainly: Dundee kinase screen re-test (standard format and 4 hour pre-incubation). It counts as biochemical. How it is done: Prior to determining its cellular activity, we carried out a screen to assess its selectivity against a panel of 131 protein kinases under conditions that would not distinguish between a reversible or irreversible mode of action. […] These 13 kinases and 29 additional kinases, selected for their known sensitivity to other inhibitors within the purine series, were then tested in a modified screening format in which the assay was repeated following a 4-hr pre-incubation (Table S3B). […] However, conformational flexibility around the active site may promote such an interaction with a residue from another part of the structure ([Martin et al., 2012]).
Table S3, Related to Figure 4. NCL-0006300 protein kinase selectivity. (A) NU6300 was tested at a single concentration of 1µM against 131 protein kinases present in a Dundee protein kinase screen (Bain et al., 2007). Values given are % activity remaining and are the average of duplicate measurements: 0-25% (red), 26-50% (yellow), 51-80% (black) and above 81% (green). The kinase domain sequences (as defined by UniProt) of […]
have a lysine residue at a position close to CDK2 Lys88 or Lys89. However, in the structure of tyrosine-protein kinase BTK (PDB ID: 3GEN) the residue equivalent to CDK2 Asp86 is Cys481 and therefore there is the potential for a covalent adduct to be formed through this side chain. Ephrin type-B receptor 3 (UniProt entry P54753) also encodes a cysteine residue (Cys717) that by sequence alignment would be predicted to be close to the CDK2 lysine pair. (B) Selected kinases were re-tested in the Dundee kinase screen against NU6300 at a single concentration of 0.5 µM both in the standard assay format and following a 4 hour pre-incubation in the presence of NU6300. Kinases which have very low activity after the 4 hour incubation so that results might not be wholly reliable are boxed in salmon. Kinases where the activity after a 4 hour pre-incubation is < 50% that in the standard assay format are highlighted in red.

A further assay deals with T2, CDK2^K88E/cyclin A (Homo sapiens, UniProt P24941, K88E).
T2 construct: GST (N, cleaved yes); made in house; host or cells: Escherichia coli; phosphorylated in vitro by GST-CAK
Kind of assay: Bandshift kinase assay after incubation and dialysis, mutant. The class given is biochemical. The procedure:
The bandshift experiment was repeated after incubating CDK2^K88E/cyclin A and CDK2^K89V/cyclin A with NU6300, NU6310, or DMSO followed by dialysis to remove unbound inhibitor (Figure S2G).
Figure S2, Related to Figure 3. Identification of the site of CDK2 modification by NU6300. (A-G) Single site CDK2 mutants CDK2D86A, CDK2K88E, and CDK2K89V identify the site of CDK2 modification by NU6300. These mutations change the CDK2 sequence to that of CDK7 and are known not to disrupt the CDK2 fold. Mass spectra of CDK2 mutants: […]
(G) Protein kinase activity of authentic CDK2 and single site CDK2 mutants following incubation with NU6300 or NU6310. Samples were taken at the indicated number of minutes after initiation of the reaction. Note that compared to authentic CDK2, the single site Lys88 and Lys89 mutants have a slower rate of reaction (Compare LHS panels). This drop in activity was expected because whereas the wild type protein was produced by co-expression with S. cerevisiae […]
the mutant proteins were activated by S. cerevisiae CAK1 phosphorylation in vitro– a relatively inefficient process as judged from the results of ESI-MS (Table S1). (H) NU6300 […]
NU6300 carbon atoms are coloured green. Rb, retinoblastoma protein, Phospho-Rb, […]
Protein expression and purification
Site-directed mutagenesis of CDK2 was performed using the QuikChange II kit (Stratagene) following the manufacturer’s instructions and verified by DNA sequencing.
Wild-type CDK2 phosphorylated at Thr160, untagged human cyclin A2 (residues 174-432), S. cerevisiae GST–CAK, GST–3C-protease and GST–pRb (residues 792–928) were expressed and purified as previously described (Brown et al., 1999a; Brown et al., 1999b; Welburn and Endicott, 2005). […]
CDK2/cyclin A (200 µM) was incubated overnight with 1 mM inhibitor or DMSO, and then dialysed for 8 h with regular replacement of dialysis buffer into HEPES-buffered saline (50 mM HEPES, pH 7.5, 250 mM NaCl, 0.02% MTG). […] Reactions were stopped by addition of SDS-PAGE loading buffer and analyzed by SDS-PAGE. […]

Where two headings read alike, the source gives them in different places.

Turning to `C=CS(=O)(=O)c1ccc(Nc2nc(OCC3CCCCC3)c3nc[nH]c3n2)cc1` [NU6300, 6-(cyclohexylmethoxy)-N-(4-(vinylsulfonyl)phenyl)-9H-purin-2-amine], the remaining activity at 0.5 µM at Aurora A (4hr RT preincubation, read-out: %Remaining activity at 0.5µM NU6300 - 4hr RT preincubation) was 6%; on Aurora A (usual format, read-out: %Remaining activity at 0.5µM NU6300 - Usual assay format) it was 26%. Moreover, the “additional loss of activity after pre-incubation” value on Aurora A (4-hr pre-incubation vs usual format, 0.5 µM) is reported as greater than 50%.

Regarding `CCS(=O)(=O)c1ccc(Nc2nc(OCC3CCCCC3)c3nc[nH]c3n2)cc1` [NU6310, 6-(cyclohexylmethoxy)-N-(4-(ethylsulfonyl)phenyl)-9H-purin-2-amine], on CDK2^K88E/cyclin A, the “CDK2 activity against Rb after incubation with inhibitor and dialysis” value is “recovered their activity”.
